The results in this text go back to patent publication US8716293B2, “Macrocyclic integrase inhibitors” (Janssen R&D Ireland, priority 2010, dated 2014).

The subject of test [1] is HIV-1 SDM strain Q148R. Kind of test: cell-based HIV-1 replication assay in MT4-LTR-EGFP cells, Q148R mutant. The note with it: fold change in activity against Q148R mutant compared to wild type HIV. The source says:
(§1) MT4-LTR-enhanced green fluorescent protein (EGFP) cells were obtained by transfecting MT4 cells with a selectable construct encompassing the coding sequences for the HIV LTR as a promoter for the expression of EGFP and subsequent selection of permanently transfected cells. MT4-cytomegalovirus (CMV)-EGFP cells were obtained by selection for permanently transformed MT4 cells with a CMV-EGFP reporter gene. Cell lines were maintained in RPMI 1640 medium supplemented with 10% heat-inactivated fetal calf serum, 2 mM L-glutamine, 0.1% NaHCO3, and antibiotics (0.02% gentamicin and 0.8% G418) and incubated in a humidified incubator with a 5% CO2 atmosphere at 37° C.
(§2) N155H and Q148R mutant Integrase coding sequences were constructed in the pUC19-5′HXB2D vector (XbaI-SalI fragment of pHXB2D), containing the HIV-1 clone HXB2D IN coding sequence, by using a QuikChange site-directed mutagenesis kit (Stratagene, La Jolla, Calif.) and HPLC-purified primers (Genset Oligos, La Jolla, Calif.). Altered plasmid sequences were confirmed by dideoxyribose sequencing. For generation of site-directed mutant (SDM) virus stocks, MT4 cells were subcultured at a density of 250,000 cells/ml on the day before transfection. Cells were pelleted and resuspended in phosphate-buffered saline at a concentration of 3.1×10^6 cells/ml. A 0.8-ml portion ([…]) was used for each transfection. Transfections were performed with a Bio-Rad Gene Pulser (Bio-Rad, Hercules, Calif.) with 0.4-cm electrode cuvettes (Bio-Rad). Cells were electroporated with 10 μg of SalI-linearized pUC19-3′HXB2D (SalI-XbaI fragment of pHXB2D) and 5 μg of SalI-digested SDM at 250 μF and 300 V, followed by a 30-min incubation at room temperature. Ten ml of fresh culture medium was then added to the suspension of transfected cells, and incubation was performed at 37° C. in a humidified atmosphere with 5% CO2. Cell cultures were monitored for the appearance of cytopathic effect (CPE).
(§3) The inhibitory antiviral activity of different compounds was determined in a cell-based HIV-1 replication assay. MT4-LTR-EGFP cells (150,000 cells/ml) were infected with HIV-1 (IIIB or SDM strains Q148R, N155H, or G140S-Q148H; multiplicity of infection [MOI] of 0.0025) in the presence or absence of inhibitor. After 3 days of incubation, the inhibition of HIV replication was quantified by measuring EGFP fluorescence, and expressed as the compound concentration required for 50% inhibition of HIV-1 replication in cell culture (EC50).

The test system of test [2] is HIV-1 SDM strain N155H. The test can be described thus: cell-based HIV-1 replication assay in MT4-LTR-EGFP cells, N155H mutant. The note with it: fold change in activity against N155H mutant compared to wild type HIV.
Source text: as §1, §2, §3

In test [3] the test system is HIV-1 SDM strain G140S-Q148H. Kind of test: cell-based HIV-1 replication assay in MT4-LTR-EGFP cells, G140S-Q148H mutant. The conditions noted are these: fold change in activity against G140S-Q148H mutant compared to wild type HIV.
Source text: as §1, §2, §3

The subject of test [4] is HIV-1 LAI (IIIB). Kind of test: antiviral assay in the presence of 50% human serum. It counts as cell-based. The note with it: MT-4-LTR-EGFP cells, 4 days, resazurin cell viability. Here is the method: For the antiviral assay in the presence of 50% human serum, MT-4-LTR-EGFP cells were infected with HIV-1 LAI (IIIB) at a MOI of 0.001 to 0.01 CCID50/cell in RPMI1640 medium. Following 1 h of incubation, cells were washed and plated into a 96-well plate containing serial dilutions of test compound in the presence of 10% fetal calf serum or 50% human serum. After 4 days of incubation, the EC50 in the presence of 50% human serum (EC50/HS) was determined by a cell viability assay using resazurin (as described by Fields, R. D., and M. V. Lancaster (1993) Am. Biotechnol. Lab. 11:48-50).

`CCN1C[C@H](C)n2c(c(O)c3c(=O)n4nc(c32)N2CCN(CCCCCOc3cc(F)ccc3C4)S2(=O)=O)C1=O` [Compound 2a] displayed an FC-Q148R in test [1] of 0.7. This compound displayed an FC-N155H in test [2] of 25.3. The compound also yielded an FC-G140S-Q148H in test [3] of 3.3. The half-maximal effective concentration (EC50) in test [4] came out at 682 nM.
The like results for `CCN1C[C@H](C)n2c(c(O)c3c(=O)n4nc(c32)N2CCN(CCCCCOc3cc(F)ccc3C4)S2(=O)=O)C1=O` [Compound 2b] were, in that order, 0.9, 8.0, 6.2 and 8 nM.
The matching figures for `CCN1C[C@H](C)n2c(c(O)c3c(=O)n4nc(c32)N(C)S(=O)(=O)CCCOc2cc(F)ccc2C4)C1=O` [Compound 8]: 3.3, 11.7, 11.3 and 10 nM.
The matching figures for `CCN1C[C@H](C)n2c(c(O)c3c(=O)n4nc(c32)N(C)S(=O)(=O)[C@@H](C)CCCCOc2cc(F)ccc2C4)C1=O` [Compound 9]: 0.4, 2.0, 1.2 and 1930 nM.
In test [1], `CCN1C[C@H](C)n2c(c(O)c3c(=O)n4nc(c32)N(C)S(=O)(=O)[C@H](C)CCCCOc2cc(F)ccc2C4)C1=O` [Compound 10] registered an FC-Q148R of 0.5. For the same compound, in test [2], the FC-N155H came out at 2.8. The compound also had an FC-G140S-Q148H in test [3] of 1.2. The EC50 in test [4] is 17 nM.
For the compound `CCN1C[C@H](C)n2c(c(O)c3c(=O)n4nc(c32)N(CC)S(=O)(=O)CCCCOc2cc(F)ccc2C4)C1=O` [Compound 11], the FC-Q148R in test [1] turned out to be 2.1. Moreover, the FC-N155H in test [2] is recorded as 5.1. In test [3], this compound showed an FC-G140S-Q148H of 14.3. Moreover, the EC50 in test [4] came to 9 nM.
The like results for `CCN1C[C@H](C)n2c(c(O)c3c(=O)n4nc(c32)N(C2CC2)S(=O)(=O)CCCCOc2cc(F)ccc2C4)C1=O` [Compound 12] were, in that order, 0.7, 3.5, 5.1 and 13 nM.
`CCN1c2nn(c(=O)c3c(O)c4n(c23)[C@@H](C)CN(C(C)C)C4=O)Cc2ccc(F)cc2OCCCCS1(=O)=O` [Compound 13] returned an FC-Q148R in test [1] of 0.7. Also, the FC-N155H in test [2] turned out to be 3.5. For the same compound, the FC-G140S-Q148H in test [3] is recorded as 2.6. In addition, the 50% effective concentration (EC50) in test [4] is 11 nM.
The like results for `CC(C)N1C[C@H](C)n2c(c(O)c3c(=O)n4nc(c32)N(C2CC2)S(=O)(=O)CCCCOc2cc(F)ccc2C4)C1=O` [Compound 14] were, in that order, 1.0, 3.5, 4.3 and 18 nM.
Regarding `CCN1C[C@H](C)n2c(c(O)c3c(=O)n4nc(c32)N(CC)S(=O)(=O)CCCCCOc2cc(F)ccc2C4)C1=O` [Compound 15], the FC-Q148R in test [1] is given as 0.5. The FC-N155H in test [2] stood at 3.4. The same compound showed an FC-G140S-Q148H in test [3] of 1.4. The concentration for a half-maximal effect (EC50) in test [4] worked out at 33 nM.
The matching figures for `CCN1C[C@H](C)n2c(c(O)c3c(=O)n4nc(c32)N(C2CC2)S(=O)(=O)CCCCCOc2cc(F)ccc2C4)C1=O` [Compound 16]: 0.6, 3.5, 1.3 and 43 nM.
The like results for `CCN1C[C@H](C)n2c(c(O)c3c(=O)n4nc(c32)N(C)S(=O)(=O)CCCCOc2cc(F)c(Cl)cc2C4)C1=O` [Compound 17] were, in that order, 0.6, 4.7, 1.9 and 24 nM.
The matching figures for `CCN1C[C@H](C)n2c(c(O)c3c(=O)n4nc(c32)N(C)S(=O)(=O)CCCCCOc2cc(F)c(Cl)cc2C4)C1=O` [Compound 18]: 0.8, 4.7, 1.8 and 47 nM.
With `CCN1C[C@H](C)n2c(c(O)c3c(=O)n4nc(c32)N(C)S(=O)(=O)CCCCOc2cc(F)c(F)cc2C4)C1=O` [Compound 19], the FC-Q148R in test [1] is recorded as 1.1. Moreover, in test [2], the FC-N155H was found to be 4.9. In test [3], this compound returned an FC-G140S-Q148H of 3.6. In addition, in test [4], the EC50 was found to be 8 nM.
The compound `CCN1C[C@H](C)n2c(c(O)c3c(=O)n4nc(c32)N(C)S(=O)(=O)CCCCCOc2cc(F)c(F)cc2C4)C1=O` [Compound 20] yielded an FC-Q148R in test [1] of 0.6. The compound also showed an FC-N155H in test [2] of 4.8. In test [3], this compound had an FC-G140S-Q148H of 1.5. Besides, the EC50 in test [4] is 17 nM.
The like results for `CCN1C[C@H](C)n2c(c(O)c3c(=O)n4nc(c32)N(C)S(=O)(=O)CCCCCNC(=O)c2cc(F)ccc2C4)C1=O` [Compound 21] were, in that order, 0.6, 6.6, 1.9 and 54 nM.
The matching figures for `CCN1C[C@H](C)n2c(c(O)c3c(=O)n4nc(c32)N(C)S(=O)(=O)CCCNC(=O)c2cc(F)ccc2C4)C1=O` [Compound 23]: 0.7, 9.6, 2.1 and 7 nM.
The like results for `CCN1C[C@H](C)n2c(c(O)c3c(=O)n4nc(c32)C(=O)NCCCCOc2cc(F)ccc2C4)C1=O` [Compound 24] were, in that order, 4.3, 10.4, 179.1 and 11 nM.
In test [1], `CCN1C[C@H](C)n2c(c(O)c3c(=O)n4nc(c32)C(=O)NCCCCCOc2cc(Cl)ccc2C4)C1=O` [Compound 25] showed an FC-Q148R of 0.3. Also, the FC-N155H in test [2] was determined as 3.5. Also, the FC-G140S-Q148H in test [3] is on record as 3.7. Moreover, the concentration giving a half-maximal response (EC50) in test [4] was found to be 138 nM.
The like results for `CCN1C[C@H](C)n2c(c(O)c3c(=O)n4nc(c32)C(=O)NCCCCCOc2cc(F)c(Cl)cc2C4)C1=O` [Compound 26] were, in that order, 0.8, 4.3, 4.1 and 32 nM.
The matching figures for `CCN1CCn2c(c(O)c3c(=O)n4nc(c32)C(=O)NCCCCCOc2cc(F)ccc2C4)C1=O` [Compound 27]: 3.0, 8.6, 668.8 and 5 nM.
The matching figures for `C[C@H]1CN(C)C(=O)c2c(O)c3c(=O)n4nc(c3n21)C(=O)NCCCCCOc1cc(F)ccc1C4` [Compound 28]: 0.9, 4.5, 17.0 and 14 nM.
For `CC(C)N1C[C@H](C)n2c(c(O)c3c(=O)n4nc(c32)C(=O)NCCCCCOc2cc(F)ccc2C4)C1=O` [Compound 29], the FC-Q148R in test [1] came to 0.4. This compound also registered an FC-N155H in test [2] of 3.8. The same compound registered an FC-G140S-Q148H in test [3] of 2.2. In addition, the EC50 in test [4] was 19 nM.
The matching figures for `CCN1C[C@H](C)n2c(c(O)c3c(=O)n4nc(c32)C(=O)N(C)CCCCOc2cc(F)ccc2C4)C1=O` [Compound 30]: 41.1, 410.4, 572.0 and 28 nM.
The like results for `CCN1C[C@H](C)n2c(c(O)c3c(=O)n4nc(c32)C(=O)N(C)CCCCCOc2cc(F)c(Cl)cc2C4)C1=O` [Compound 32] were, in that order, 0.3, 4.3, 2.6 and 77 nM.
